Here are results for 24 molecules from ChEMBL document CHEMBL3352598, “Synthesis, pharmacological evaluation and molecular modeling studies of triazole containing dopamine D3 receptor ligands” (Bioorg Med Chem Lett, 2015).

The target of one test is D(3) dopamine receptor (Homo sapiens, UniProt P35462). Put plainly: biochemical. The format is cell-based, HEK293.
The next test addresses D(2) dopamine receptor (Homo sapiens, UniProt P14416). Put plainly: biochemical. The format is cell-based, HEK293.
Test [1] addresses T1, 5-hydroxytryptamine receptor 1A (Homo sapiens, UniProt P08908).
T1 sequence (P08908 whole entry): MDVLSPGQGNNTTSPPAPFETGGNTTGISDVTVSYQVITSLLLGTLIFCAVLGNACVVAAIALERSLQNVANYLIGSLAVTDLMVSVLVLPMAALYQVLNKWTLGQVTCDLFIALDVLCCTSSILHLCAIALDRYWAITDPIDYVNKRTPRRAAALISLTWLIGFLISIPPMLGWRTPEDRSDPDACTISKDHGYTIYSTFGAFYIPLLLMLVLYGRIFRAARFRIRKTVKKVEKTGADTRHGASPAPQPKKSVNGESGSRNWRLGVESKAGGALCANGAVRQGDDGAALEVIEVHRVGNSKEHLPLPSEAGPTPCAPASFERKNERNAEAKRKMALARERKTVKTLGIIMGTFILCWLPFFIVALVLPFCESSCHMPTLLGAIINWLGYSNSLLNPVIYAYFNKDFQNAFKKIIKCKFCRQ
Put plainly: Displacement of [3H]8-OH-DPAT from human 5HT1A receptor after 60 mins by filtration binding assay.

Another test deals with T2, D(4) dopamine receptor (Homo sapiens, UniProt P21917).
T2 sequence (P21917 whole entry): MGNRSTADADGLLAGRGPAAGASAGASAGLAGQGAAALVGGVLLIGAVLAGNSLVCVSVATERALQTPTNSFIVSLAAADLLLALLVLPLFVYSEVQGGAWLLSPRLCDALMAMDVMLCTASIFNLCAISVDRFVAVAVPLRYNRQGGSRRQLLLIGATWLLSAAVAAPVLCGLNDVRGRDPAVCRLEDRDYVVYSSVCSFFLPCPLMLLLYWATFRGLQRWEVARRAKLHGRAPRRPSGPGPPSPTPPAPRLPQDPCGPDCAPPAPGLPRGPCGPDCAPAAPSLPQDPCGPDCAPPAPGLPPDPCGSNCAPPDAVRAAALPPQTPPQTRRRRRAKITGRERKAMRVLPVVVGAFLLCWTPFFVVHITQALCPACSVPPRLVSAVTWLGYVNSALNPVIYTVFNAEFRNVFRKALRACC
Put plainly: Displacement of [125I]-IABN from human D4 receptor expressed in HEK293 cell membranes after 60 mins by filtration binding assay. (In general: Loss of bound radioactivity is the signal in a displacement assay; it reports binding, not function.)

For another test, the species on record is Homo sapiens. Put plainly: Selectivity index, ratio of Ki for D4 receptor to Ki for human D3 receptor.

Sequence of D(2) dopamine receptor (P14416 whole entry): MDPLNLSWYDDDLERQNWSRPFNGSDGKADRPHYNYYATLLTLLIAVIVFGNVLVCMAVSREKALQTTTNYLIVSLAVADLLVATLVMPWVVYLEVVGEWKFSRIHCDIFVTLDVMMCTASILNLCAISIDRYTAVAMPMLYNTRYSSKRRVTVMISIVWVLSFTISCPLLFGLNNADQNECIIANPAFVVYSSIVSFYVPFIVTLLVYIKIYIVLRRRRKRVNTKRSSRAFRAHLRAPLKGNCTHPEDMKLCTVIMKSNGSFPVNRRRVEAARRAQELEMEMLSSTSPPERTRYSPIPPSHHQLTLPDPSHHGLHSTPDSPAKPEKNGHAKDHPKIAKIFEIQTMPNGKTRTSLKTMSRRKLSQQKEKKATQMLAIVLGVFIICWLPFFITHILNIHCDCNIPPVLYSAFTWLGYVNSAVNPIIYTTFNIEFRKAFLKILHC
Sequence of D(3) dopamine receptor (P35462 whole entry): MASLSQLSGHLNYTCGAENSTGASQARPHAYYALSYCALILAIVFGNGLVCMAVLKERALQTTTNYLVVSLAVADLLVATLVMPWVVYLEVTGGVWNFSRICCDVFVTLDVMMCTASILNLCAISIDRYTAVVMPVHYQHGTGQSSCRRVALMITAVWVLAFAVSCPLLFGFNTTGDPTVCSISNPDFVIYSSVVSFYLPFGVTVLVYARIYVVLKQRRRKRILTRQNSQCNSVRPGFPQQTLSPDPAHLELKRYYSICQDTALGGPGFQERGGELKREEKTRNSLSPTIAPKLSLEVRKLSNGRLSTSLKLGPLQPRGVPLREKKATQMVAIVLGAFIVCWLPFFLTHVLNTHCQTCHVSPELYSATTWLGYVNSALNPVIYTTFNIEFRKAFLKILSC

Consider `COc1ccccc1N1CCN(CCCCCc2cn(-c3ccccc3)nn2)CC1`, for which the figures for the Ki on D(3) dopamine receptor and on D(2) dopamine receptor were 3.1 nM and 19.4 nM, respectively.
Take `COc1ccccc1N1CCN(CCCCCc2cn(-c3ccccc3OC)nn2)CC1`: the Ki at D(3) dopamine receptor was found to be 21.1 nM; at D(2) dopamine receptor, 62.7 nM.
Turning to `COc1ccccc1N1CCN(CCCCc2cn(-c3ccccc3)nn2)CC1`, the Ki on D(3) dopamine receptor was determined as 4.7 nM; on D(2) dopamine receptor it was 30.9 nM.
In the same order, the values of `COc1ccccc1N1CCN(CCCc2cn(-c3ccccc3OC)nn2)CC1` are 93.1 nM and 272 nM.
In the same order, the values of `COc1ccccc1N1CCN(CCCCCc2cn(-c3ccc(N(C)C)cc3)nn2)CC1` are 6.7 nM and 62.6 nM.
As to `COc1ccccc1N1CCN(CCCc2cn(-c3ccc(-c4ccsc4)cc3)nn2)CC1`, the inhibition constant (Ki) at D(3) dopamine receptor was 8.9 nM; in test [1], 7.4 nM; on D(4) dopamine receptor, 90 nM; on D(2) dopamine receptor, 158 nM. Further, in the test filed under Homo sapiens, the Ratio Ki came out at 10.
Take `COc1ccccc1N1CCN(CCCCCc2cn(-c3ccc(F)cc3)nn2)CC1`: the Ki at D(3) dopamine receptor was found to be 3.2 nM; at D(2) dopamine receptor it was 23.7 nM.
`COc1ccccc1N1CCN(CCCCc2cn(-c3ccc(N(C)C)cc3)nn2)CC1`: the Ki at D(3) dopamine receptor was 13.9 nM; in test [1], 9.4 nM; on D(4) dopamine receptor, 758 nM; on D(2) dopamine receptor, 171 nM. For the same molecule, the Ratio Ki in the test filed under Homo sapiens worked out at 55.
Take `COc1ccccc1N1CCN(CCCc2cn(-c3ccccc3O)nn2)CC1`: the Ki at D(3) dopamine receptor was determined as 6.8 nM; on D(2) dopamine receptor, 12.8 nM.
In the same order, the values of `COc1ccccc1N1CCN(CCCc2cn(-c3ccc(SC)cc3)nn2)CC1` are 9.6 nM and 44.1 nM.
For `COc1ccccc1N1CCN(CCCc2cn(-c3ccc(N(C)C)cc3)nn2)CC1`, in that order: 29.6 nM and 162 nM.
On to `COc1ccccc1N1CCN(CCCCc2cn(-c3ccc(-c4ccsc4)cc3)nn2)CC1`, for which the inhibition constant Ki on D(3) dopamine receptor was 8.2 nM; in test [1], 1.3 nM; on D(4) dopamine receptor, 395 nM; on D(2) dopamine receptor, 94.3 nM. Moreover, the Ratio Ki in the test listed under Homo sapiens was found to be 48.
In turn, `COc1ccccc1N1CCN(CCCCNC(=O)c2ccc(N(C)C)cc2)CC1` yielded a Ki in test [1] of 7.5 nM. Also, the Ratio Ki in the test listed under Homo sapiens turned out to be 1120.
Turning to `COc1ccccc1N1CCN(CCCCCc2cn(-c3cccc4cnccc34)nn2)CC1`, the Ki stood at 1.8 nM at D(3) dopamine receptor, 5.8 nM in test [1], 186 nM on D(4) dopamine receptor and 17.7 nM on D(2) dopamine receptor. For the same molecule, the Ratio Ki in the test filed under Homo sapiens was 103.
`COc1ccccc1N1CCN(CCCc2cn(-c3ccccc3)nn2)CC1`: the values for the Ki on D(3) dopamine receptor and at D(2) dopamine receptor were 22.2 nM and 64 nM, respectively.
For `COc1ccccc1N1CCN(CCCCCc2cn(-c3ccc(-c4ccsc4)cc3)nn2)CC1`, the Ki at D(3) dopamine receptor is 6.3 nM; in test [1], 153 nM; on D(4) dopamine receptor, 163 nM; on D(2) dopamine receptor, 109 nM. In addition, the Ratio Ki in the test listed under Homo sapiens worked out at 26.
As to `COc1ccccc1N1CCN(CCCc2cn(-c3cccc4cnccc34)nn2)CC1`, the Ki at D(3) dopamine receptor was determined as 36.3 nM; at D(2) dopamine receptor, 79.3 nM.
Regarding `COc1ccccc1N1CCN(CCCCc2cn(-c3ccc(F)cc3)nn2)CC1`, the figures for the Ki on D(3) dopamine receptor and on D(2) dopamine receptor were 6.5 nM and 46.7 nM, respectively.
In the same order, the values of `COc1ccccc1N1CCN(CCCc2cn(-c3ccc(F)cc3)nn2)CC1` are 26.5 nM and 73.5 nM.
Regarding `COc1ccccc1N1CCN(CCCCc2cn(-c3ccc(SC)cc3)nn2)CC1`, the Ki on D(3) dopamine receptor is 2.1 nM; in test [1], 5.3 nM; at D(4) dopamine receptor, 200 nM; on D(2) dopamine receptor, 37.7 nM. The Ratio Ki in the test listed under Homo sapiens amounted to 95.
On to `COc1ccccc1N1CCN(CCCCc2cn(-c3ccccc3OC)nn2)CC1`, for which the Ki on D(3) dopamine receptor came to 25.4 nM; at D(2) dopamine receptor, 139 nM.
As for `COc1ccccc1N1CCN(CCCCc2cn(-c3cccc4cnccc34)nn2)CC1`, the inhibitory constant (Ki) at D(3) dopamine receptor was 3.7 nM; in test [1], 6 nM; on D(4) dopamine receptor, 875 nM; on D(2) dopamine receptor, 42.3 nM. Moreover, the Ratio Ki in the test filed under Homo sapiens came out at 237.
For `COc1ccccc1N1CCN(CCCCCc2cn(-c3ccc(SC)cc3)nn2)CC1`, in that order: 2.3 nM, 3.9 nM, 227 nM, 26.6 nM and 99.
For `COc1ccccc1N1CCN(CCCCc2cn(-c3ccccc3O)nn2)CC1`, the Ki at D(3) dopamine receptor stood at 2.9 nM; at D(2) dopamine receptor it was 9.4 nM.

By Ki is commonly meant a measure of affinity in units of concentration, obtained from inhibition or displacement.
